The results in this text go back to patent US20020055465A1, “Nocathiacin antibiotics prepared by biotransformation or chemical methods” (priority 2000, published 2002).

Values after ≈ are worked out from the molar mass of the structure shown. Where a name gives a salt, the structure may show the parent alone. Read-outs that look alike come from different tables or passages of the source.

The MIC is the smallest concentration in the dilution series that meets the test's criterion for growth inhibition.

Assay [1] deals with Bacillus subtilis/ATCC6633. Briefly: MIC, broth micro dilution assay (NCCLS). The assay is classed as cell-based. How it is done:
(§1) The serial broth dilution method used Mueller-Hinton medium except for the Streptococcus pneumoniae which was tested in 50% Mueller-Hinton medium and 50% Todd Hewitt medium. The final bacterial inoculate contained approximately 5×10^5 cfu/well and was run on microtiter plates. The volume of each well was 100 μL and the plates were incubated at 35° C. for 18 hours in ambient air. The MIC was defined as the lowest drug concentration that prevented visible growth.

Assay [2] deals with Enterococcus faecalis. Nature of the assay: MIC, broth micro dilution assay (NCCLS). It is filed as cell-based. Conditions: strain A20688. As to the method: as §1
The test system of assay [3] is Enterococcus faecium. Briefly: MIC, broth micro dilution assay (NCCLS). The assay is classed as cell-based. As to the method: as §1
Assay [4] concerns Moraxella catarrhalis/β-lactamase positive. Briefly: MIC, broth micro dilution assay (NCCLS). The assay is classed as cell-based. Conditions: strain A22344. How it is done: as §1
The test system of assay [5] is Staphylococcus aureus. Briefly: MIC, broth micro dilution assay (NCCLS). The assay is classed as cell-based. As to the method:
as §1

The subject of assay [6] is Staphylococcus epidermidis. Nature of the assay: MIC, broth micro dilution assay (NCCLS). As to conditions: strain A24548. It is filed as cell-based. As to the method:
as §1

The subject of assay [7] is Staphylococcus haemolyticus. Nature of the assay: MIC, broth micro dilution assay (NCCLS). The assay is classed as cell-based. Conditions: strain A27298. How it is done: as §1
Assay [8] has as its system Streptococcus pneumoniae. Briefly: MIC, broth micro dilution assay (NCCLS). It is filed as cell-based. How it is done:
as §1

Assay [9] deals with Staphylococcus aureus A15090. Nature of the assay: Systemic Staphylococcus aureus infection model. It is filed as in vivo. As to conditions: female ICR mice infected IP with S. aureus A15090; compound SC at 1 and 4 hours post-infection. As to the method: Nocathiacin IV and nocathiacin IV 6-deoxyglucoside were evaluated for antibiotic activity in vivo, in a systemic infection model using female ICR mice. The animals were infected intraperitoneally (IP) with 6.5×10^6 CFU of an overnight culture of Staphylococcus aureus A15090 suspended in 7% mucin. The compound was dissolved in a test formulation consisting of 10% DMSO, 5% Tween 80 and 85% water. The solution was administered subcutaneously (SC) at 100 mg/kg total dose (2×50 mg/kg doses at 1 and 4 hours post-infection). The PD50 of nocathiacin IV was determined to be 1.07 mg/kg. The PD50 of nocathiacin IV 6-deoxyglucoside was determined to be 6.4 mg/kg.

[10] abbreviates: Enterococcus faecalis + 50% calf serum.
[11] abbreviates: Enterococcus faecalis, read-out: MIC.
Where [12] appears, read: Enterococcus faecium/vancomycin resistant, strain A28142.
The mark [13] stands for this setting: 209P / ATCC 6538P, Staphylococcus aureus/209P/ATCC6538P, strain A9497.
[14] abbreviates: Staphylococcus aureus + 50% calf serum, strain A15090.
Where [15] appears, read: Staphylococcus aureus + 50% calf serum, strain A27223.
[16] abbreviates: Staphylococcus aureus/homo methicillin resistant, strain A27223.
Where [17] appears, read: Staphylococcus aureus/β lactamase positive, strain A15090.
Setting [18] is: Streptococcus pneumoniae, strain A9585, 50% Mueller-Hinton/50% Todd Hewitt medium.
Where [19] appears, read: Streptococcus pneumoniae/penicillin intermediate, strain A27881.
Setting [20] is: Streptococcus pneumoniae/penicillin resistant, strain A28272, read-out: MIC.

Consider `CO/C(C)=C1/NC(=O)C(C(C)O)NC(=O)c2csc(n2)-c2cc(O)c(-c3nc(C(N)=O)cs3)nc2-c2csc(n2)C2COC(=O)c3c4c5c(cccc5n3O)COC(=O)C(OC3CC(C)(O)C(N(C)C)C(C)O3)C(OC4)C(NC(=O)c3csc1n3)c1nc(cs1)C(=O)N2` (stereo not shown) [Nocathiacin IV (HCI salt), nocathiacin IV], for which the minimal inhibitory concentration (MIC) was 0.06 µg/mL in assay [1]; 0.03 µg/mL in [2] (setting [10]); 0.03 µg/mL in [2] (setting [11]); 0.03 µg/mL in assay [3] (setting [12]); 0.06 µg/mL in assay [3] (strain A24885); 0.25 µg/mL in [4]. The MIC in assay [5] (setting [13]) was determined as 0.03 µg/mL; in assay [5] (setting [14]), 0.03 µg/mL; in assay [5] (setting [15]), 0.03 µg/mL; in assay [5] (setting [16]), 0.03 µg/mL; in assay [5] (setting [17]) it was 0.03 µg/mL; in [6] it was 0.06 µg/mL. The MIC in assay [7] came to 0.06 µg/mL; in [8] (setting [18]), 0.001 µg/mL; in [8] (setting [19]), 0.001 µg/mL; in [8] (setting [20]), 0.001 µg/mL.

With `CO/C(C)=C1/NC(=O)C(C(C)O)NC(=O)c2csc(n2)-c2cc(OC3OC(C)C(O)C(O)C3O)c(-c3nc(C(N)=O)cs3)nc2-c2csc(n2)C2COC(=O)c3c4c5c(cccc5n3O)COC(=O)C(OC3CC(C)(O)C(N(C)C)C(C)O3)C(OC4)C(NC(=O)c3csc1n3)c1nc(cs1)C(=O)N2` (stereo not shown) [nocathiacin IV 6-deoxyglucoside], the MIC in assay [1] is 0.5 µg/mL (≈ 0.33 µM); in [2] (setting [10]) it was 0.25 µg/mL; in assay [2] (setting [11]), 0.25 µg/mL (≈ 0.165 µM); in [3] (setting [12]), 0.5 µg/mL (≈ 0.33 µM); in [3] (strain A24885), 0.5 µg/mL (≈ 0.33 µM); in assay [4], 2 µg/mL (≈ 1.32 µM). For the same molecule, the minimal inhibitory concentration (MIC) was 0.5 µg/mL (≈ 0.33 µM) in assay [5] (setting [13]); 0.25 µg/mL in [5] (setting [14]); 0.25 µg/mL in [5] (setting [15]); 0.5 µg/mL (≈ 0.33 µM) in [5] (setting [16]); 0.5 µg/mL (≈ 0.33 µM) in assay [5] (setting [17]); 0.25 µg/mL (≈ 0.165 µM) in assay [6]. The MIC in assay [7] was 0.5 µg/mL (≈ 0.33 µM); in assay [8] (setting [18]) it was 0.03 µg/mL (≈ 0.0198 µM); in assay [8] (setting [19]), 0.03 µg/mL (≈ 0.0198 µM); in assay [8] (setting [20]) it was 0.03 µg/mL (≈ 0.0198 µM). In assay [9], this molecule showed a PD50 of 6.4 mg/kg.

In assay [9], `CO/C(C)=C1/NC(=O)C(C(C)O)NC(=O)c2csc(n2)-c2cc(O)c(-c3nc(C(N)=O)cs3)nc2-c2csc(n2)C2COC(=O)c3c4c5c(cccc5n3O)COC(=O)C(OC3CC(C)(O)C(N(C)C)C(C)O3)C(OC4)C(NC(=O)c3csc1n3)c1nc(cs1)C(=O)N2` (stereo not shown) [nocathiacin IV] returned a PD50 of 1.07 mg/kg.
